Results as given in patent US10077277B2, “Bicyclic heteroarylaminoalkyl phenyl derivatives as PI3K inhibitors” (Incyte Corporation, priority 2014, dated 2018).
pIC50: −log10 of the molar value. Counter-ions that a name gives are not always drawn. Like-named read-outs stand apart in the source and are kept apart here.

Columns and labels:
[1] = target: PI3Kδ (p110δ/p85α) (Homo sapiens (Human), UniProt O00329); assay: PI3Kδ scintillation proximity assay (Example A3); type: biochemical; conditions: Assay A3, 20 μM ATP
PI3Kδ (p110δ/p85α), sequence (O00329 whole entry): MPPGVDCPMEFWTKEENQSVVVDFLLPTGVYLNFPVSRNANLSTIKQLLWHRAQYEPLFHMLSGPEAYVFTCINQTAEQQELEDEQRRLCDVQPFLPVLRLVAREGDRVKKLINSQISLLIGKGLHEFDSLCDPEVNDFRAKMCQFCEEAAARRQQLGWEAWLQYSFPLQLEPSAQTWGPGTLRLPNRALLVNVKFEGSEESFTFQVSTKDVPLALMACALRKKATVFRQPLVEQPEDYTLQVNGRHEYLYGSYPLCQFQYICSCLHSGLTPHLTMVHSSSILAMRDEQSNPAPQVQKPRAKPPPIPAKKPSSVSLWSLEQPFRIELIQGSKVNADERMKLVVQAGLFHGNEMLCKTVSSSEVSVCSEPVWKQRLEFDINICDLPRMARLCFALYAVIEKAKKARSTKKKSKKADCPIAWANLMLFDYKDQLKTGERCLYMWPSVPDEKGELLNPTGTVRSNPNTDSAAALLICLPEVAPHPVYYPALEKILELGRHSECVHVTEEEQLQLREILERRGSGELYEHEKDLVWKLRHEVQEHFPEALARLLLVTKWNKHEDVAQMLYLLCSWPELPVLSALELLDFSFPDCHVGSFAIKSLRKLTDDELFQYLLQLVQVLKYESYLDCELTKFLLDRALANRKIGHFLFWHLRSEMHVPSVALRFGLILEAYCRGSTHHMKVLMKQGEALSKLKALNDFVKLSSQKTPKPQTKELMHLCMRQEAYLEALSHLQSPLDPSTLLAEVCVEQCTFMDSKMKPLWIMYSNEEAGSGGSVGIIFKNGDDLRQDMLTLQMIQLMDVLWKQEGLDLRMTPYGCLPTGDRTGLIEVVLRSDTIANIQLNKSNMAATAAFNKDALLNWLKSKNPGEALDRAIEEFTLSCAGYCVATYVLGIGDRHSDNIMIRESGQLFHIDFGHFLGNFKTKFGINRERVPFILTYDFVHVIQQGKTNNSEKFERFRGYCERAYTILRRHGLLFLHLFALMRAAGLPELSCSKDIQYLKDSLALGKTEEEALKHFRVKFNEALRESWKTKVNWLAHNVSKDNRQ
PI3Kδ (p110δ/p85α), sequence (P27986 whole entry partner): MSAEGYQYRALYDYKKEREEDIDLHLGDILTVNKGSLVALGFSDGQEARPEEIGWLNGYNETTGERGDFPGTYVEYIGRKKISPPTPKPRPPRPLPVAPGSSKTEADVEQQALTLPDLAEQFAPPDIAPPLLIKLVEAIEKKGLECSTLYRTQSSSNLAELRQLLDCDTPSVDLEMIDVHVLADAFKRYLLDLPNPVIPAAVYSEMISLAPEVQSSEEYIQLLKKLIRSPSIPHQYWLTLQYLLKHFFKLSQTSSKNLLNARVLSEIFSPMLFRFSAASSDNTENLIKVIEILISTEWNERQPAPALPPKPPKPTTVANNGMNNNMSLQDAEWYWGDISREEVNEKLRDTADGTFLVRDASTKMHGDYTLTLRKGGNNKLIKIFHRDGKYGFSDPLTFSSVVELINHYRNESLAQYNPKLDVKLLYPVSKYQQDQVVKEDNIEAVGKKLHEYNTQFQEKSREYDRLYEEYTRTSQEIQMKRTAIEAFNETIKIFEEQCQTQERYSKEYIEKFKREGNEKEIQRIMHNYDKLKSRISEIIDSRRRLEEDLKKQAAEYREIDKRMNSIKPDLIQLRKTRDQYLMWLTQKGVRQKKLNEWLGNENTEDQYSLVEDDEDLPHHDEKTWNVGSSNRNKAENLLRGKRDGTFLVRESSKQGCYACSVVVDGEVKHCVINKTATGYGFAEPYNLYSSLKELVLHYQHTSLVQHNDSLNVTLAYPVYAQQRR
Excerpt: Example A3: PI3Kδ Scintillation Proximity Assay
[γ-^33P]ATP (10 mCi/mL) was purchased from PerkinElmer (Waltham, Mass.). Lipid kinase substrate, D-myo-Phosphatidylinositol 4,5-bisphosphate (PtdIns(4,5)P2)D (+)-sn-1,2-di-O-octanoylglyceryl, 3-O-phospho linked (PIP2), CAS 204858-53-7, was purchased from Echelon Biosciences (Salt Lake City, Utah). PI3Kδ (p110δ/p85α) was purchased from Millipore (Bedford, Mass.). ATP, MgCl2, DTT, EDTA, MOPS and CHAPS were purchased from SigmaAldrich (St. Louis, Mo.). Wheat Germ Agglutinin (WGA) YSi SPA Scintillation Beads was purchased from GE healthcare life sciences (Piscataway, N.J.).
The kinase reaction was conducted in polystyrene 384-well matrix white plate from Thermo Fisher Scientific in a final volume of 25 μL. Inhibitors were first diluted serially in DMSO and added to the plate wells before the addition of other reaction components. The final concentration of DMSO in the assay was 0.5%. The PI3K assays were carried out at room temperature in 20 mM MOPS, pH 6.7, 10 mM MgCl2, 5 mM DTT and CHAPS 0.03%. Reactions were initiated by the addition of ATP, the final reaction mixture consisted of 20 μM PIP2, 20 μM ATP, 0.2 μCi [γ-^33P] ATP, 4 nM PI3Kδ. Reactions were incubated for 210 min and terminated by the addition of 40 μL SPA beads suspended in quench buffer: 150 mM potassium phosphate pH 8.0, 20% glycerol. 25 mM EDTA, 400 μM ATP. The final concentration of SPA beads was 1.0 mg/mL. After the plate sealing, plates were shaken overnight at room temperature and centrifuged at 1800 rpm for 10 minutes, the radioactivity of the product was determined by scintillation counting on Topcount (PerkinElmer). IC50 determination was performed by fitting the curve of percent control activity versus the log of the inhibitor concentration using the GraphPad Prism 3.0 software. IC50 data for the Examples is presented in Table 2 as determined by Assay A3.

[2] = test system: SUDHL-6 cells; assay: SUDHL-6 cell proliferation assay (Example B3); type: cell-based; conditions: 3 days, Cell Titer-GLO ATP quantitation, read-out: SUDHL6 IC50
Experimental: Example B3: SUDHL-6 Cell Proliferation Assay
SUDHL-6 cell line (diffuse large B cell lymphoma) was purchased from ATCC (Manassas, Va.) and maintained in the culture medium recommended (RPMI and 10% FBS). To measure the anti-proliferation activity of the compounds through ATP quantitation, the SUDHL-6 cells was plated with the culture medium (5000 cells/well/per 200 μl) into 96-well polystyrene clear black tissue culture plate (Greiner-bio-one through VWR, NJ) in the presence or absence of a concentration range of test compounds. After 3 days, Cell Titer-GLO Luminescent (Promega, Madison, Wis.) cell culture agent was added to each well for 10 minutes at room temperature to stabilize the luminescent signal. This determines the number of viable cells in culture based on quantitation of the ATP present, which signals the presence of metabolically active cells. Luminescence was measured with the TopCount 384 (Packard Bioscience through Perkin Elmer, Boston, Mass.). IC50 data for the Examples is presented in Table 3 determined by the assay of Example B3.

[3] = target: human JAK1 (Homo sapiens, UniProt P23458); assay: In vitro JAK kinase assay (Example J), JAK1; type: biochemical; conditions: Assay J at 1 mM ATP
[4] = target: human JAK2 (Homo sapiens (Human), UniProt O60674); assay: In vitro JAK kinase assay (Example J), JAK2; type: biochemical; conditions: ratio of IC50s, Assay J at 1 mM ATP
human JAK2, sequence (O60674 828-1132): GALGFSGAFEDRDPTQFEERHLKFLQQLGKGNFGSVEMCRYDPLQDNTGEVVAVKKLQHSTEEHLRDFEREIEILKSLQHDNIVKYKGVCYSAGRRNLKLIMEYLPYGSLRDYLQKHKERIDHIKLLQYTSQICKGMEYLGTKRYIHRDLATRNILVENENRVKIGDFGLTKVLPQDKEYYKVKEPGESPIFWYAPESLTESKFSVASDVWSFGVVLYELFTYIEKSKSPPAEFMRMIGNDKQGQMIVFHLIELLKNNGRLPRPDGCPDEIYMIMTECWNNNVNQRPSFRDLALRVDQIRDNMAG

Row | SMILES | pIC50 [1] | pIC50 [3] | JAK2/JAK1 [4] | other results
1 | CCOc1c(C(C)Nc2ncnc3scnc23)cc(Cl)c(F)c1C1CNC(=O)C1 (single isomer, unassigned) [Example 1C, 4-{3-chloro-6-ethoxy-2-fluoro-5-[1-([1,3]thiazolo[5,4-d]pyrimidin-7-ylamino)ethyl]phenyl}pyrrolidin-2-one] | ≥ 7.00 |  |  | pIC50 [2]: ≥ 6.30
2 | CCOc1c(C(C)Nc2ncnc3scnc23)cc(Cl)c(F)c1C1CNC(=O)C1 (single isomer, unassigned) [Example 1A, 4-{3-chloro-6-ethoxy-2-fluoro-5-[1-([1,3]thiazolo[5,4-d]pyrimidin-7-ylamino)ethyl]phenyl}pyrrolidin-2-one] | ≥ 7.00 |  |  | pIC50 ([2]; Homo sapiens, SU-DHL-6, 72 h): ≥ 6.30
3 | CCOc1c(C(C)Nc2ncnc3scnc23)cc(Cl)c(F)c1C1CNC(=O)C1 (single isomer, unassigned) [Example 1B, 4-{3-chloro-6-ethoxy-2-fluoro-5-[1-([1,3]thiazolo[5,4-d]pyrimidin-7-ylamino)ethyl]phenyl}pyrrolidin-2-one] | 6.40 to 7.00 |  |  | 
4 | N#CCC1(n2cc(-c3ncnc4[nH]ccc34)cn2)CN([C@H]2CC[C@@H](Oc3cc(CCO)nc(C(F)(F)F)n3)CC2)C1 [Example 18, {1-(cis-4-{[6-(2-hydroxyethyl)-2-(trifluoromethyl)pyrimidin-4-yl]oxy}cyclohexyl)-3-[4-(7H-pyrrolo[2,3-d]pyrimidin-4-yl)-1H-pyrazol-1-yl]azetidin-3-yl}acetonitrile] |  | > 8.00 | >10 | 
5 | N#CCC1(n2cc(-c3ncnc4[nH]ccc34)cn2)CN(C2CCN(C(=O)Nc3ccc(F)cc3C(F)(F)F)CC2)C1 [Example 8, 4-{3-(Cyanomethyl)-3-[4-(7H-pyrrolo[2,3-d]pyrimidin-4-yl)-1H-pyrazol-1-yl]azetidin-1-yl}-N-[4-fluoro-2-(trifluoromethyl)phenyl]piperidine-1-carboxamide] |  | > 8.00 | >10 | 
6 | CCOc1c(C(C)Nc2ncnc3scnc23)cc(Cl)c(F)c1C1CNC(=O)C1 (stereo not drawn) [Example 1, 4-{3-Chloro-6-ethoxy-2-fluoro-5-[1-([1,3]thiazolo[5,4-d]pyrimidin-7-ylamino)ethyl]phenyl}pyrrolidin-2-one trifluoroacetate] | ≥ 7.00 |  | >10 | 
7 | CCNCc1cc(O[C@H]2CC[C@@H](N3CC(CC#N)(n4cc(-c5ncnc6[nH]ccc56)cn4)C3)CC2)nc(C(F)(F)F)c1 [Example 19, {1-(cis-4-{[4-[(ethylamino)methyl]-6-(trifluoromethyl)pyridin-2-yl]oxy}cyclohexyl)-3-[4-(7H-pyrrolo[2,3-d]pyrimidin-4-yl)-1H-pyrazol-1-yl]azetidin-3-yl}acetonitrile] |  | > 8.00 | >10 | 
8 | C[C@@H](O)CNCc1cc(OC2CCN([C@H]3C[C@](CC#N)(n4cc(-c5ncnc6[nH]ccc56)cn4)C3)CC2)nc(C(F)(F)F)c1 [Example 24] |  | > 8.00 | >10 | 
9 | C[C@H](O)CNCc1cc(OC2CCN([C@H]3C[C@](CC#N)(n4cc(-c5ncnc6[nH]ccc56)cn4)C3)CC2)nc(C(F)(F)F)c1 [Example 25] |  | > 8.00 | >10 | 
10 | CCOc1c(C(C)Nc2ncnc3scnc23)cc(Cl)c(F)c1C1CNC(=O)C1 (single isomer, unassigned) [Example 1D, 4-{3-chloro-6-ethoxy-2-fluoro-5-[1-([1,3]thiazolo[5,4-d]pyrimidin-7-ylamino)ethyl]phenyl}pyrrolidin-2-one] | 6.40 to 7.00 |  |  | 

The next lines start with results.

Row | pIC50 [1] | pIC50 [3] | JAK2/JAK1 [4] | SMILES | other results
11 | ≥ 7.00 |  |  | COc1c([C@H](C)Nc2ncnc3cccnc23)cc(Cl)c(C)c1-c1ccc(C(=O)N(C)C)nc1 [Example 3, 5-{3-Chloro-6-methoxy-2-methyl-5-[(1S)-1-(pyrido[3,2-d]pyrimidin-4-ylamino)ethyl]phenyl}-N,N-dimethylpyridine-2-carboxamide bis(trifluoroacetate)] | pIC50 ([2]; Homo sapiens, SU-DHL-6, 72 h): ≥ 6.30
12 | ≥ 7.00 |  |  | CCNC(=O)c1c(C)c(Cl)cc(C(C)Nc2ncnc3cccnc23)c1-c1cc(F)cc(F)c1 (stereo not drawn) [Example 4, 4-Chloro-N-ethyl-3′,5′-difluoro-3-methyl-6-[1-(pyrido[3,2-d]pyrimidin-4-ylamino)ethyl]biphenyl-2-carboxamide] | pIC50 ([2]; Homo sapiens, SU-DHL-6, 72 h): ≥ 6.30
13 | 6.40 to 7.00 |  |  | CCOc1c([C@@H](C)Nc2ncnc3cccnc23)cc(Cl)c(F)c1[C@@H]1CNC(=O)C1 (single isomer, unassigned) [Example 2B, 4-{3-chloro-6-ethoxy-2-fluoro-5-[1-(pyrido[3,2-d]pyrimidin-4-ylamino)ethyl]phenyl}pyrrolidin-2-one] | 
14 | 6.40 to 7.00 |  |  | CCOc1c([C@@H](C)Nc2ncnc3cccnc23)cc(Cl)c(F)c1[C@@H]1CNC(=O)C1 (single isomer, unassigned) [Example 2D, 4-{3-chloro-6-ethoxy-2-fluoro-5-[1-(pyrido[3,2-d]pyrimidin-4-ylamino)ethyl]phenyl}pyrrolidin-2-one] | 
15 | ≥ 7.00 |  |  | CCOc1c(C(C)Nc2ncnc3cccnc23)cc(Cl)c(F)c1C1CNC(=O)C1 (stereo not drawn) [Example 2, 4-{3-Chloro-6-ethoxy-2-fluoro-5-[1-(pyrido[3,2-d]pyrimidin-4-ylamino)ethyl]phenyl}pyrrolidin-2-one] | 
16 | ≥ 7.00 |  |  | CCOc1c([C@@H](C)Nc2ncnc3cccnc23)cc(Cl)c(F)c1[C@@H]1CNC(=O)C1 [Example 2A, 4-{3-chloro-6-ethoxy-2-fluoro-5-[1-(pyrido[3,2-d]pyrimidin-4-ylamino)ethyl]phenyl}pyrrolidin-2-one] | pIC50 ([2]; Homo sapiens, SU-DHL-6, 72 h): ≥ 6.30
